# Results: patent US20040235922A1, “Compositions and methods for inducing adipose tissue cell death” (priority 2003, published 2004)
# “Also recorded” adds a separate entry of the source. Marks after values point to notes of the source that are not given here.
# Legend:
# [1] = tested on: male and female ICR mice; experiment: 21 day oral (diet) treatment of mice: selected tissue weights, fat pads, BAT, muscle, organs (Example 1); assay type: in vivo; details: 21 days; for Brown adipose tissue (BAT) mass compared to control/other treatments: 200 ppm clenbuterol in diet; for Brown adipose tissue (BAT) mass compared to control/other treatments / Rp and Epi/Par fat pad weights compared to control: p<0.05; for Rp and Epi/Par fat pad weights compared to control: 200 ppm clenbuterol, 800 ppm ractopamine in diet
# Procedure: The effects of clenbuterol, a β2-AR agonist, and ractopamine, a β1/β2-AR agonist, on growth, adiposity and adipose tissue apoptosis in male and female mice have been tested by feeding diets containing control, 200 ppm clenbuterol, or 200 or 800 ppm ractopamine. Food intake (FI) was measured daily; body weight (BW) and temperatures (BT) were measured on days 0, 3, 7, 10, 14, 17, and 20. On day 21 mice were sacrificed, body composition was determined using PIXImus densitometry, and muscle and adipose tissues were collected. There were no treatment effects on BT, FI, BW, feed efficiency or body composition. Retroperitoneal (Rp) and epididymal/parametrial (Epi/Par) fat pad masses were reduced in both 800 ppm ractopamine (40±3 and 207±20 mg, respectively) and clenbuterol (35±7 and 211±22 mg) treated mice compared to control (66±8 and 319±30 mg, p<0.05). Brown adipose tissue (BAT) mass was greater (p<0.05) in clenbuterol treated mice compared to other treatments. Adipose tissue apoptosis (% DNA fragmentation) was increased in Epi/Par fat pads in clenbuterol (5.2+1.1%) and 800 ppm ractopamine (4.1±0.8%) treated mice compared to control (1.7+0.4%, p<0.05).
# Animals: Five week old male (n=20) and female (n=20) ICR mice (Harlan Research Laboratories, Indianapolis, Ind.) were allowed to acclimate for one week prior to the experiment start date. Animals were housed singly in suspended wire cages and were provided ground rodent chow (ProLab® RMH 2500; Purina Mills, St. Louis, Mo.) and water ad libitum. Ambient room temperature was maintained and the light/dark cycle was 0600/1800 hours, respectively. Animals were cared for in accordance with the Guide for the Care and Use of Laboratory Animals (Institute of Laboratory Animal Resources Commission on Life Sciences National Research Council. Guide for the Care and Use of Laboratory Animals. National Academy of Sciences, 1996). Prior to the start of the study, animals were briefly anesthetized with isofluorane and an IPPT-200 transponder (programmable ID and temperature, BMDS, Seaford, Del.) was implanted subcutaneously between the scapulae.
# Materials: Test articles included clenbuterol (Sigma Chemical Company, St. Louis, Mo., item # C5423) and ractopamine hydrochloride—Paylean® 9 (Elanco Animal Health, Indianapolis, Ind.). Clenbuterol is available as a pure product, and ractopamine is readily available as a type A medicated article. Paylean® 9 contains about 20 g ractopamine hydrochloride per kilogram in a ground corncob base. In order to achieve doses of 200 and 800 ppm it was necessary to add about […] of product per kilogram of diet. Control and clenbuterol diets were prepared with about 80 g of alphacel, which is a diluent used to mimic the effect of the corncob in the ractopamine product. The dose of clenbuterol used in this experiment was similar to those used in previous experiments with mice (Agbenyega E T, and Wareham A C. Effect of clenbuterol on skeletal muscle atrophy in mice induced by the glucocorticoid dexamethasone. Comp Biochem Physiol Comp Physiol 1992;102:141-145, Rothwell N. J., and Stock M J. Modification of body composition by clenbuterol in normal and dystrophic (mdx) mice. Biosci Rep 1985;5:755-760, Hyltander A, Svaninger G, and Lundholm K. The effect of clenbuterol on body composition in spontaneously eating tumour-bearing mice. Biosci Rep 1993;13:325-331, Hayes A, and Williams DA. Long-term clenbuterol administration alters the isometric contractile properties of skeletal muscle from normal and dystrophin-deficient mdx mice. Clin Exp Pharmacol Physiol 1994;21:757-765, Dupont-Versteegden EE. Exercise and clenbuterol as strategies to decrease the progression of muscular dystrophy in mdx mice. J Appl Physiol 1996;80:734-741). […]
# [2] = Clenbuterol feeding for 21 days in WT and GDF-8 KO mice: body weight, weight gain, food intake, feed efficiency (Example 2); assay type: in vivo; details: 200 ppm in diet
# Procedure: The effects of clenbuterol on muscularity and adiposity in male and female GDF-8 knockout (GDF-8 KO) (n=20) and wild type (WT) mice (n=20) were tested by feeding 0 or 200 ppm clenbuterol for 21 days. […] For all other variables, GDF-8 KO and WT mice responded similarly to clenbuterol.
# Animals: Twelve-week old male (n=10) and female (n=10) GDF-8 (−/−) knockout mice and male (n=10) and female (n=10) GDF-8 (+/+) WT mice were used in the study. GDF-8 knockout mice, which were derived from the 129/SvJ mouse strain, were originally obtained from MetaMorphix Inc. and were bred in-house for the study. Mice were housed singly in suspended wire cages in a room maintained at 22±1 C and with a 12:12 hour light/dark cycle. Mice were provided ground rodent chow (ProLab® RMH 2500; Purina Mills, St. Louis, Mo.) and water ad libitum. Mice were cared for in accordance with the Guide for the Care and Use of Laboratory Animals.
# Materials: Clenbuterol (Sigma Chemical Company, St. Louis, Mo., item# C5423), was thoroughly mixed into the ground rodent chow to provide a 200 ppm concentration.
# Daily Observations: Food intake was measured daily, and body weight was measured on days 0, 3, 7, 10, 14, 17, 20, and 21 at approximately 1430 h during the treatment period. At 15 weeks of age (day 21), a final body weight measurement was obtained approximately one hour prior to euthanasia, and mice were sacrificed by decapitation following CO2 asphyxiation.
# Statistical Analysis: The study was analyzed as a 2×2×2 factorial design (N=5/cell). Analysis of variance (SAS) was used to determine significance of main effects of gender, genotype (WT vs. GDF-8 KO) and clenbuterol (0 vs. 200 ppm) and interactions. Statistically significant differences are defined at the 95% confidence interval.
# Feed efficiency was calculated as the total food intake (g)/cumulative weight gain (g). There was a trend (p=0.07) for clenbuterol to improve feed efficiency (g feed/g weight gain) (Table 3).
# [3] = tested on: mouse adipocytes; details: in vitro; cited from earlier work
# [4] = 200 ppm in diet, male and female mice
# [5] = WT and GDF-8 KO mice, main effect, Mean ± SEM
smiles,measurement,setting,value
"CC(C)(C)NCC(O)c1cc(Cl)c(N)c(Cl)c1 (stereo not shown) [Clenbuterol, clenbuterol]",Brown adipose tissue (BAT) mass compared to control/other treatments,[1],increased BAT mass
same,Brown adipose tissue (BAT) mass compared to control/other treatments,[1]; listed as clenbuterol,greater; also recorded: significantly increased
same,Rp and Epi/Par fat pad weights compared to control,[1],decreased mass of Rp and Epi/Par fat pads in females only
same,Rp and Epi/Par fat pad weights compared to control,[1]; listed as clenbuterol,reduced
same,"BAT tissue weight, mean",[1]; [4],.124
same,"Biceps tissue weight, mean",[1]; [4],.145
same,"Epi/Par tissue weight, mean",[1]; [4],.211
same,"Heart tissue weight, mean",[1]; [4],.164
same,"Ing tissue weight, mean",[1]; [4],.150
same,"Kidney tissue weight, mean",[1]; [4],.582
same,"Liver tissue weight, mean",[1]; [4],2.14
same,"Rp tissue weight, mean",[1]; [4],.035
same,Retroperitoneal (Rp) fat pad mass,"[1]; 200 ppm in diet, mice, control 66±8 mg",35 ± 7 mg
same,Epididymal/parametrial (Epi/Par) fat pad mass,"[1]; 200 ppm in diet, mice, control 319±30 mg",211 ± 22 mg
same,"Muscle mass / muscle weight, body protein or fat content","[1]; diet, ICR mice",no effect
same,"Par weight, mean","[1]; females, 200 ppm in diet",.18^b
same,"Epi weight, mean","[1]; males, 200 ppm in diet",.24^ab
same,Effect on final body weight (FBW),[2],did not significantly affect
same,Food Intake,[2]; [5],4.78 ± 0.16 g/day
same,Wt Gain,[2]; [5],0.165 ± 0.01 g/day
same,Feed Efficiency,"[2]; WT and GDF-8 KO mice, main effect, p = 0.07",34.4 g feed/g wt gain
same,"Effect on food intake, body weight or body composition",[2]; WT or GDF-8 KO mice,did not affect
same,Final Body Wt,"[2]; female and male WT and GDF-8 KO mice, main effect, Mean ± SEM",29.9 ± 1.2 g
same,Feed efficiency in females compared to control,[2]; female mice,no effect; also recorded: not in females
same,Weight gain in females compared to control,[2]; female mice,not in females
same,Weight gain compared to control,"[2]; main effect, p<0.05",increased
same,Feed efficiency in males compared to control,[2]; male mice,more than doubled; also recorded: significantly improved
same,More efficient (feed efficiency) compared to males fed control diet,[2]; male mice,more than 250%
same,Weight gain in males compared to control,[2]; male mice,significantly increased; also recorded: twice as much
same,Insulin-induced lipolysis in mouse adipocytes,[3],inhibited
same,Lipolysis in mouse adipocytes,[3],stimulated
